Data set [1] has as its system duodenal epithelial mucosa tissue. The data set can be described thus: Test Example 1: atrophy of duodenal epithelial mucosa caused by 48-hour fasting, PAS-stained tissue sections. The format is in vivo, rat. As to conditions: for Density of secretion granules / Intercellular space / Size of cell / Size of nucleus: fasting rats, 48 hours. The protocol: Six-week-old male Sprague-Dawley rats (purchased from Nippon Charles River) were employed in the test. Water and solid feed (CRF-1, product of Oriental Yeast) were freely ingested by the rats. […] The test was carried out for 48 hours. For the fasting groups, solid feed was removed in the morning of the day on which the test was initiated. During the 48 hours, solid feed, water, and an ethanolamine hydrochloride-containing aqueous solution were freely ingested by the rats in the solid feed ingestion group, the water ingestion fasting group, and the ethanolamine hydrochloride ingestion fasting group, respectively. The amount of water ingested during the 48 hours was measured, and the amount of ingested ethanolamine per rat was calculated on the basis of the amount of water (Table 2). […] The small intestine was excised from each rat, and a duodenal portion (size: 1 cm in length) was removed from a position 5 cm in the direction of the anus away from the pylorus. The removed portion was fixed in phosphate buffered formalin. After 24-hour fixation, the duodenal portion was embedded in paraffin using a conventional technique, to thereby prepare a tissue section. The thus-prepared tissue sample was subjected to PAS staining, and then observed.

Data set [2] can be described thus: Test Example 1: body weight of fasting rats. It counts as in vivo, rat. As to conditions: 48 hours; for Weight ± standard deviation, Final: fasting rats, free ingestion. The protocol: Six-week-old male Sprague-Dawley rats (purchased from Nippon Charles River) were employed in the test. Water and solid feed (CRF-1, product of Oriental Yeast) were freely ingested by the rats. […] The test was carried out for 48 hours. For the fasting groups, solid feed was removed in the morning of the day on which the test was initiated. During the 48 hours, solid feed, water, and an ethanolamine hydrochloride-containing aqueous solution were freely ingested by the rats in the solid feed ingestion group, the water ingestion fasting group, and the ethanolamine hydrochloride ingestion fasting group, respectively. The amount of water ingested during the 48 hours was measured, and the amount of ingested ethanolamine per rat was calculated on the basis of the amount of water (Table 2). For each group, the rats were weighed at the time of test initiation and the time of test completion, in order to obtain the average weight (Table 1). In the fasting groups, any changes in the weight of the rats that could be attributed to ethanolamine ingestion were not observed.

In data set [3] the test system is villous epithelium of the duodenum. The data set can be described thus: Test Example 2: duodenal disorder induced by four-day fasting and intraperitoneal 5% dextrose, HE-stained tissue sections. The format is in vivo, rat. To be noted: 250 mg/5 mL/kg orally twice a day, first to third fasting day, versus control group. The procedure:
Nine-week-old CD (SD) IGS male rats were employed in the test. The rats were kept in individual fasting cages, and the day after initiation of fasting was regarded as the first fasting day. Fasting (i.e., provision of no food and no water) was carried out for four days, and on the fourth day the rats were sacrificed through […]. A 5% dextrose solution was intraperitoneally administered to each rat in an amount of 10 mL on the basis of body weight (100 g) from the first fasting day to the third fasting day, to thereby induce disorders. The rats were divided into two groups: a control group and a drug administration group. To the rats of the control group, sterile water was orally administered in an amount of 0.5 mL per 100 g of body weight twice a day, at 10:00 AM and 4:00 PM. To the rats of the drug administration group, ethanolamine hydrochloride was administered in an amount of 250 mg/5 mL/kg twice a day, at 10:00 AM and 4:00 PM. The administration was carried out from the first fasting day to the third fasting day. On the fourth fasting day, the rats were sacrificed through cervical dislocation, and the stomach and the duodenum were removed from each rat. The inside of the intestinal tract was washed with saline. Subsequently, the pylorus was ligated and the tract was also ligated at a position 4 cm from the pylorus. […]

For data set [4], the system named is primarily cultured liver cells. To be noted: cited from earlier work.
The test system of data set [5] is keratinocyte. To be noted: cited from earlier work.
Where [6] appears, read: 1 μM Etn in water (6 μg/kg/day).
Setting [7] is: 10 μM Etn in water (34 μg/kg/day).
[8] abbreviates: 100 μM Etn in water (330 μg/kg/day).
Where [9] appears, read: 1000 μM Etn in water (4500 μg/kg/day).

The structures appear in SMILES notation. Counter-ions that a name gives are not always drawn.

With `NCCO` [ethanolamine hydrochloride], the “position of nuclei in cells” value in data set [1] (100 μM ingestion fasting group) was “situated centrally”. In data set [1] (100 μM ingestion fasting group, compared with solid feed ingestion group), the “enlarged intercellular spaces and cell atrophy” value was “not observed”. For the same compound, the cell nuclei size result in data set [1] (100 μM ingestion fasting group, compared with water and 1 or 10 μM fasting groups) is reported as “considerably enlarged”; in data set [1] (1 or 10 μM ingestion fasting groups) it was “reduced in size”. In addition, the “PAS staining of mucus-secreting granules in goblet cells” value in data set [1] (100 μM ingestion fasting group, compared with water ingestion fasting group) is “heavily stained”. For the same compound, the “Density of secretion granules” value in data set [1] (setting [6]) is on record as “Low”; in data set [1] (setting [7]), “Low”; in data set [1] (setting [8]), “High”; in data set [1] (setting [9]), “High”. Further, the Intercellular space result in data set [1] (setting [6]) is reported as “Large”; in data set [1] (setting [7]), “Large”; in data set [1] (setting [8]), “None”; in data set [1] (setting [9]), “None”. Moreover, the Size of cell result in data set [1] (setting [6]) is “Small”; in data set [1] (setting [7]), “Small”; in data set [1] (setting [8]), “Large”; in data set [1] (setting [9]), “Large”. Besides, the Size of nucleus result is recorded as “Small” in data set [1] (setting [6]), “Small” in data set [1] (setting [7]), “Large” in data set [1] (setting [8]) and “Large” in data set [1] (setting [9]). For the same compound, in data set [1] (overall conclusion of Test Example 1), the “prevention and treatment of atrophy of the small intestine caused by fasting” value is given as “effective”. In addition, the “Weight ± standard deviation, Final” value in data set [2] (1 μM Etn in water) is given as 208.2 ± 3.1 g; in data set [2] (10 μM Etn in water) it was 209.4 ± 7.4 g; in data set [2] (100 μM Etn in water), 210.4 ± 3.9 g; in data set [2] (1000 μM Etn in water), 213.1 ± 6.7 g.
Consider `NCCO` [ethanolamine], for which, in data set [2] (fasting groups), the “changes in the weight of the rats that could be attributed to ethanolamine ingestion” value is on record as “not observed”. In data set [3], the cellular infiltration entry was “only slight” and the “necrosis of the villous epithelium” value was “remarkably suppressed”. Further, in data set [4] (in the presence of a cell growth factor such as EGF, ethanolamine 10-100 μM), the “proliferation of liver cells” value is listed as “synergistically promoted”. In data set [4] (only ethanolamine added, no cell growth factor), the proliferation-promoting activity entry is recorded as “not observed”. Further, the “proliferation of epithelial cells” value in data set [5] is “promote proliferation”.

The values are drawn from US6337322B1, “Preventives and remedies for intestinal mucosal disorder” (Meiji Milk Products Co., Ltd., priority 1998, dated 2002).
